One data set deals with H358 (KRAS G12C). As to the kind of experiment: Tumor cell proliferation inhibition assay (CellTiter-Glo), H358. Format: cell-based, Human. The conditions noted are these: 10% fetal bovine serum. The method, then: (§1) The H358, H23 or MIA-Paca2 cells were digested, centrifuged and resuspended, and the cell density was measured with a Scepter automatic cell counter. Cells were diluted to a solution containing 44,000 cells per milliliter, then added to a 96-well culture plate at 90 μL per well. The 96-well plate was placed in a 5% CO2 incubator at 37° C., and after the cells were cultured for 24 hours, different concentrations of the compounds to be tested were added. Cells were incubated with compounds in the presence of 10% fetal bovine serum for 72 hours. The inhibition of cell growth was assessed by measuring ATP levels by using the CellTiter-Glo Luminescent Cell Viability Assay Kit (details in manufacturer's instructions). In brief, 30 μL of CellTiter-Glo reagent was added to each well and the plate was shaken for 10 minutes to induce cell lysis, then the fluorescent signal was detected and recorded with a Fluoroskan Ascent FL (Thermo). Maximum signal values were obtained from cells treated with DMSO for 72 hours. Minimum signal values were obtained with medium only (zero cell number). Inhibition rate %=(maximum signal value-compound signal value)/(maximum signal value-minimum signal value)×100%. Data were processed by using Graphpad prism5 software. IC50 values were calculated using a sigmoidal dose-response curve.
On the technique in general: ATP-based viability assays read luminescence as a measure of living cells.

The test system of another data set is MIA-Paca2 (KRAS G12C). As to the kind of experiment: Tumor cell proliferation inhibition assay (CellTiter-Glo), MIA-Paca2. The conditions noted are these: 10% fetal bovine serum. Format: cell-based, Human. The method, then: as §1
Another data set deals with H23 (KRAS G12C). Nature of the data set: Tumor cell proliferation inhibition assay (CellTiter-Glo), H23. The conditions noted are these: 10% fetal bovine serum. Format: cell-based, Human. The method, then: as §1
The nature of data set [1]: Pharmacokinetic (PK) experiment in rats by gavage. The conditions noted are these: rat, plasma, po, male SD rats, 20 mg/kg; for AUC(0-t): read-out: AUC0-24. Format: in vivo. On the procedure:
Male SD rats, weighing 180-250 g, were fasted overnight before the test and stomach administrated with the test compound at 20 mg/kg. 15 minutes, 30 minutes, and 1, 2, 4, 6, 8, and 24 hours after administration, blood was taken from the end of the tail of the fracture, about 0.3 mL per time point, then placed in a centrifuge tube containing K2-EDTA, and centrifuged (2000 g, 10 min, at 4° C.). Plasma was collected and stored in an ultra-low temperature freezer at −80° C. 50 μL of plasma samples were vortexed with 135 μL of acetonitrile (containing 1 μg/mL internal standard) for protein precipitation and centrifuged, and the supernatant was collected for LC-MS/MS analysis.
After the rats oral administrated with the Pyridopyrimidinone compounds provided by the present disclosure, the absorption is good, and the blood exposure is relatively high. […] Cmax refers to the maximum plasma concentration, T1/2 is the half-life, AUC0-24 refers to the area under the 0-24 hour time-concentration curve, and AUC0-inf refers to the area under the 0-Inf time-concentration curve.

The next data set deals with T1, KRAS-G12C/SOS1 (Homo sapiens, UniProt P01116, G12C).
T1 construct: purchased Cisbio #63ADK000CB16PEG
T1 sequence (P01116 1-188 isoform P01116-2 G12C): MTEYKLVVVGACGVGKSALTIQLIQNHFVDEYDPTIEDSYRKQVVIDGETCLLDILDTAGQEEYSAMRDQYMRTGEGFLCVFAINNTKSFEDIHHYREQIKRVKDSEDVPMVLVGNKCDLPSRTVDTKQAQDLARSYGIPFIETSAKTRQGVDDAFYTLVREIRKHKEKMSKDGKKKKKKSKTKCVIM
As to the kind of experiment: HTRF KRAS-G12C/SOS1 binding assay. The conditions noted are these: 2 hours room temperature. (In general: TR-FRET usually uses a lanthanide donor and a delayed reading to cut background.)

As usually defined, the IC50 is the midpoint of a concentration-inhibition curve. Usually melting point stands for the temperature of the solid-liquid transition. For the molecule `C=CC(=O)N1C[C@H](C)N(c2nc(=O)n(-c3c(C)ccnc3C(C)C)c3nc(-c4c(F)c(F)cc5ccoc45)c(F)cc23)C[C@H]1C` (atropisomer, axis not shown; (P)) [Compound 91-2, 4-((2S,5R)-4-acryloyl-2,5-dimethylpiperazin-1-yl)-7-(5,6-difluorobenzofuran-7-yl)-6-fluoro-1(P)-(2-isopropyl-4-methylpyridin-3-yl)pyrido[2,3-d]pyrimidin-2(1H)-one], the melting point lay in the range of 161 to 173 °C. For the same molecule, in the data set on H358 (KRAS G12C) (72 hours), the IC50 was over 500 nM. Moreover, the half-maximal inhibitory concentration (IC50) in the data set on MIA-Paca2 (KRAS G12C) (72 hours) is over 500 nM. Also, the half-inhibitory concentration (IC50) with H23 (KRAS G12C) (72 hours) is 50 to 100 nM.
The term AUC(0-inf) denotes the area under the concentration-time curve extrapolated to infinity. By Cmax is commonly meant the highest concentration seen after dosing. Usually Tmax stands for the time from dosing to the highest level. As usually defined, the half-life is how long it takes for the measured level to halve. `C=CC(=O)N1CCN(c2nc(=O)n(-c3c(C)ccnc3C(C)C)c3nc(-c4c(F)c(F)cc5ccoc45)c(Cl)cc23)[C@@H](C)C1` [Compound 103, 4-((S)-4-acryloyl-2-methylpiperazin-1-yl)-6-chloro-7-(5,6-difluorobenzofuran-7-yl)-1-(2-isopropyl-4-methylpyridin-3-yl)pyrido[2,3-d]pyrimidin-2(1H)-one]: in the data set with H358 (KRAS G12C) (72 hours), the IC50 is under 10 nM. The same molecule had an IC50 in the data set with MIA-Paca2 (KRAS G12C) (72 hours) of 10 to 50 nM. In the data set on H23 (KRAS G12C) (Homo sapiens, 72 h), the IC50 is under 10 nM. Also, in data set [1], the AUC(0-inf) amounted to 9420 ng·h/mL, the maximum concentration (Cmax) was 3310 ng/mL, the Tmax is 1 h and the half-life is 3.77 h. In addition, in data set [1], the AUC(0-t) was 9400 ng·h/mL.
`C=CC(=O)N1CCN(c2nc(=O)n(-c3c(C)ccnc3C(C)C)c3nc(-c4c(F)ccc5c4OCO5)c(Cl)cc23)[C@@H](C)C1` [Compound 97, 4-((S)-4-acryloyl-2-methylpiperazin-1-yl)-6-chloro-7-(5-fluorobenzo[d][1,3]dioxol-4-yl)-1-(2-isopropyl-4-methylpyridin-3-yl)pyrido[2,3-d]pyrimidin-2(1H)-one]: the 50% inhibitory concentration (IC50) on KRAS-G12C/SOS1 lay in the range of 50 to 100 nM. This molecule also returned an IC50 in the data set on H358 (KRAS G12C) (Homo sapiens, NCI-H358, 72 h) of under 10 nM. The same molecule had an IC50 in the data set with MIA-Paca2 (KRAS G12C) (Homo sapiens, MIA PaCa-2, 72 h) of 10 to 50 nM. Further, in data set [1], the AUC(0-inf) was determined as 10400 ng·h/mL, the peak concentration (Cmax) was 4660 ng/mL, the Tmax amounted to 1 h and the half-life was 5.98 h. Moreover, in data set [1], the AUC(0-t) came to 10400 ng·h/mL.
For `C=CC(=O)N1C[C@H](C)N(c2nc(=O)n(-c3c(C)ccnc3C(C)C)c3nc(-c4c(F)c(F)cc5ccoc45)c(Cl)cc23)C[C@H]1C` [Compound 104, 4-((2S,5R)-4-acryloyl-2,5-dimethylpiperazin-1-yl)-6-chloro-7-(5,6-difluorobenzofuran-7-yl)-1-(2-isopropyl-4-methylpyridin-3-yl)pyrido[2,3-d]pyrimidin-2(1H)-one], the half-maximal inhibitory concentration (IC50) in the data set on H358 (KRAS G12C) (72 hours) was under 10 nM. This molecule had an IC50 with MIA-Paca2 (KRAS G12C) (72 hours) of 10 to 50 nM. Moreover, the IC50 in the data set on H23 (KRAS G12C) (Homo sapiens, 72 h) was under 10 nM. In data set [1], the AUC(0-inf) came out at 13000 ng·h/mL, the highest concentration (Cmax) worked out at 2110 ng/mL, the time to peak (Tmax) came to 2 h and the half-life is 2.46 h. Also, the AUC(0-t) in data set [1] came to 13000 ng·h/mL.
For `C=CC(=O)N1CCN(c2nc(=O)n(-c3c(C)ccnc3C(C)C)c3nc(-c4c(F)ccc5ccoc45)c(F)cc23)[C@@H](C)C1` [Compound 70, 4-((S)-4-acryloyl-2-methylpiperazin-1-yl)-6-fluoro-7-(6-fluorobenzofuran-7-yl)-1-(2-isopropyl-4-methylpyridin-3-yl)pyrido[2,3-d]pyrimidin-2(1H)-one], the half-inhibitory concentration (IC50) lay in the range of 100 to 500 nM on KRAS-G12C/SOS1; 10 to 50 nM in the data set on H358 (KRAS G12C) (Homo sapiens, NCI-H358, 72 h); 10 to 50 nM with MIA-Paca2 (KRAS G12C) (Homo sapiens, MIA PaCa-2, 72 h).
For `C=CC(=O)N1CCN(c2nc(=O)n(-c3c(C)ccnc3C(C)C)c3nc(-c4c(F)ccc5ccoc45)c(Cl)cc23)[C@@H](CC)C1` [Compound 99, 4-((S)-4-acryloyl-2-ethylpiperazin-1-yl)-6-chloro-7-(6-fluorobenzofuran-7-yl)-1-(2-isopropyl-4-methylpyridin-3-yl)pyrido[2,3-d]pyrimidin-2(1H)-one], the IC50 in the data set on H358 (KRAS G12C) (Homo sapiens, NCI-H358, 72 h) is 50 to 100 nM; with MIA-Paca2 (KRAS G12C) (Homo sapiens, MIA PaCa-2, 72 h) it was 100 to 500 nM; in the data set with H23 (KRAS G12C) (Homo sapiens, 72 h), under 10 nM.
Take `C=CC(=O)N1CCN(c2nc(=O)n(-c3c(C)ccnc3C(C)C)c3nc(-c4c(F)c(F)cc5ccoc45)c(F)cc23)[C@@H](C)C1` [Compound 74, 4-((S)-4-acryloyl-2-methylpiperazin-1-yl)-7-(5,6-difluorobenzofuran-7-yl)-6-fluoro-1-(2-isopropyl-4-methylpyridin-3-yl)pyrido[2,3-d]pyrimidin-2(1H)-one]: the IC50 in the data set with H358 (KRAS G12C) (72 hours) is 10 to 50 nM; with MIA-Paca2 (KRAS G12C) (72 hours) it was 50 to 100 nM; in the data set on H23 (KRAS G12C) (72 hours), under 10 nM.
For `C=CC(=O)N1C[C@H](C)N(c2nc(=O)n(-c3c(C)ccnc3C(C)C)c3nc(-c4c(F)c(F)cc5ccoc45)c(F)cc23)C[C@H]1C` [Compound 91, 4-((2S,5R)-4-acryloyl-2,5-dimethylpiperazin-1-yl)-7-(5,6-difluorobenzofuran-7-yl)-6-fluoro-1-(2-isopropyl-4-methylpyridin-3-yl)pyrido[2,3-d]pyrimidin-2(1H)-one], the IC50 with H358 (KRAS G12C) (72 hours) was 10 to 50 nM; in the data set with MIA-Paca2 (KRAS G12C) (72 hours), 50 to 100 nM; in the data set on H23 (KRAS G12C) (72 hours) it was under 10 nM.
For the molecule `C=CC(=O)N1CCN(c2nc(=O)n(-c3c(C)ccnc3C(C)C)c3nc(-c4c(F)ccc5c4OCC5)c(F)cc23)[C@@H](C)C1` [Compound 79, 4-((S)-4-acryloyl-2-methylpiperazin-1-yl)-6-fluoro-7-(6-fluoro-2,3-dihydrobenzofuran-7-yl)-1-(2-isopropyl-4-methylpyridin-3-yl)pyrido[2,3-d]pyrimidin-2(1H)-one], the IC50 on KRAS-G12C/SOS1 lay in the range of 100 to 500 nM; with H358 (KRAS G12C) (Homo sapiens, NCI-H358, 72 h), 10 to 50 nM; in the data set on MIA-Paca2 (KRAS G12C) (Homo sapiens, MIA PaCa-2, 72 h), 10 to 50 nM.
Regarding `C=CC(=O)N1CCN(c2nc(=O)n(-c3c(C)ccnc3C(C)C)c3nc(-c4c(F)c(F)cc5ccoc45)c(Cl)cc23)[C@@H](C)C1` (atropisomer, axis not shown; (P)) [Compound 103-2, 4-((S)-4-acryloyl-2-methylpiperazin-1-yl)-6-chloro-7-(5,6-difluorobenzofuran-7-yl)-1(P)-(2-isopropyl-4-methylpyridin-3-yl)pyrido[2,3-d]pyrimidin-2(1H)-one], the values for the IC50 in the data set on H358 (KRAS G12C) (72 hours), in the data set with MIA-Paca2 (KRAS G12C) (72 hours) and in the data set with H23 (KRAS G12C) (72 hours) were 100 to 500 nM, 100 to 500 nM and 10 to 50 nM, respectively.
`C=CC(=O)N1CCN(c2nc(=O)n(-c3c(C)ccnc3C(C)C)c3nc(-c4c(F)c(F)cc5ccoc45)c(F)cc23)[C@@H](C)C1` (atropisomer, axis not shown; (P)) [Compound 74-2, 4-((S)-4-acryloyl-2-methylpiperazin-1-yl)-7-(5,6-difluorobenzofuran-7-yl)-6-fluoro-1(P)-(2-isopropyl-4-methylpyridin-3-yl)pyrido[2,3-d]pyrimidin-2(1H)-one]: the IC50 is over 500 nM in the data set with H358 (KRAS G12C) (72 hours), over 500 nM with MIA-Paca2 (KRAS G12C) (72 hours) and 100 to 500 nM with H23 (KRAS G12C) (72 hours).
As to `C=CC(=O)N1C[C@H](C)N(c2nc(=O)n(-c3c(C)ccnc3C(C)C)c3nc(-c4c(F)ccc5ccoc45)c(Cl)cc23)C[C@H]1C` (atropisomer, axis not shown; (P)) [Compound 90-2, 4-((2S,5R)-4-acryloyl-2,5-dimethylpiperazin-1-yl)-6-chloro-7-(6-fluorobenzofuran-7-yl)-1(P)-(2-isopropyl-4-methylpyridin-3-yl)pyrido[2,3-d]pyrimidin-2(1H)-one], the melting point is 152 to 161 °C. In addition, the concentration for half-maximal inhibition (IC50) in the data set with H358 (KRAS G12C) (72 hours) is 50 to 100 nM. This molecule registered an IC50 in the data set with MIA-Paca2 (KRAS G12C) (72 hours) of 50 to 100 nM. For the same molecule, the IC50 in the data set with H23 (KRAS G12C) (72 hours) is under 10 nM.
`C=CC(=O)N1C[C@H](C)N(c2nc(=O)n(-c3c(C)ccnc3C(C)C)c3nc(-c4c(F)c(F)cc5ccoc45)c(Cl)cc23)C[C@H]1C` (atropisomer, axis not shown; (P)) [Compound 104-2, 4-((2S,5R)-4-acryloyl-2,5-dimethylpiperazin-1-yl)-6-chloro-7-(5,6-difluorobenzofuran-7-yl)-1(P)-(2-isopropyl-4-methylpyridin-3-yl)pyrido[2,3-d]pyrimidin-2(1H)-one] showed a melting point of 153 to 162 °C. The IC50 in the data set on H358 (KRAS G12C) (72 hours) was 100 to 500 nM. In the data set with MIA-Paca2 (KRAS G12C) (72 hours), the IC50 lay within 100 to 500 nM. The IC50 in the data set with H23 (KRAS G12C) (72 hours) is 10 to 50 nM.

(Values after patent US20220389013A1, “PYRIDOPYRIMIDINONE COMPOUNDS AND APPLICATIONS THEREOF” (BeBetter Med Inc., priority 2020, published 2022).)
